{"source": "paper PMC4520234", "about": "(Journal of medicinal chemistry, 2015)", "key": {"[1]": {"test_system": "mice", "test": "In vivo tolerability in mice, intraperitoneal injection"}, "[2]": {"test_system": "mice", "settings": "cited from earlier work"}, "[3]": {"settings": "dogs, cited from earlier work"}, "[4]": {"test": "Zinc binding by EGTA titration", "settings": "EGTA 7.3 mM, PAC-1 derivative 100 μM, Zn(OTf)2 titration, ex. 410 nm, em. 475 nm"}, "[5]": {"test": "Pharmacokinetics in mice, 25 mg/kg IV injection or oral gavage", "format": "in vivo, mouse", "settings": "25 mg/kg IV (n = 2)"}, "[6]": {"settings": "i.p. injection 200 mg/kg, graded mild, moderate, severe, or lethal"}}, "data": [{"compound": "C=CCc1cccc(/C=N/NC(=O)CN2CCN(C(=O)c3ccc(F)cc3)CC2)c1O", "note": "[Compound 7, N′-[2-Hydroxy-3-(2-propenyl)phenylmethylene]-4-(4-fluorobenzoyl)-1-piperazineacetohydrazide]", "values": [{"measurement": "mouse toxicity IP 200 mg/kg", "setting": "[1]; [6]", "result": "moderate"}]}, {"compound": "O=C(CN1CCN(C(=O)c2ccc(C(F)(F)F)cc2)CC1)N/N=C/c1cc(F)ccc1O", "note": "[Compound 27, N′-(5-Fluoro-2-hydroxyphenylmethylene)-4-[4-(trifluoromethyl)benzoyl]-1-piperazineacetohydrazide]", "values": [{"measurement": "mouse toxicity IP 200 mg/kg", "setting": "[1]; [6]", "result": "moderate"}]}, {"compound": "C=CCc1cc(F)cc(/C=N/NC(=O)CN2CCN(C(=O)c3ccccc3)CC2)c1O", "note": "[Compound 30, N′-[5-Fluoro-2-hydroxy-3-(2-propenyl)phenylmethylene]-4-benzoyl-1-piperazineacetohydrazide]", "values": [{"measurement": "mouse toxicity IP 200 mg/kg", "setting": "[1]; [6]", "result": "moderate"}]}, {"compound": "C=CCc1cc(F)cc(/C=N/NC(=O)CN2CCN(C(=O)c3ccc(F)cc3)CC2)c1O", "note": "[Compound 34, N′-[5-Fluoro-2-hydroxy-3-(2-propenyl)phenylmethylene]-4-(4-fluorobenzoyl)-1-piperazineacetohydrazide]", "values": [{"measurement": "mouse toxicity IP 200 mg/kg", "setting": "[1]; [6]", "result": "severe"}]}, {"compound": "CCCc1cc(F)cc(/C=N/NC(=O)CN2CCN(C(=O)c3ccc(F)cc3)CC2)c1O", "note": "[Compound 43, N′-(5-Fluoro-2-hydroxy-3-propylphenylmethylene)-4-(4-fluorobenzoyl)-1-piperazineacetohydrazide]", "values": [{"measurement": "mouse toxicity IP 200 mg/kg", "setting": "[1]; [6]", "result": "severe"}]}, {"compound": "C=CCc1cccc(/C=N/NC(=O)CN2CCN(Cc3ccccc3)CC2)c1O", "note": "[PAC-1, Procaspase-Activating Compound 1]", "values": [{"measurement": "serum concentration achieved with few adverse events", "setting": "[2]", "result": "approximately 10 μM"}, {"measurement": "maximum tolerated dose", "setting": "[2]; intraperitoneal injection", "result": 200, "unit": "mg/kg"}, {"measurement": "in vivo half-life", "setting": "[3]; IV administration", "result": "2.1 ± 0.3", "unit": "h"}, {"measurement": "serum concentration achieved with few adverse events", "setting": "[3]", "result": "approximately 10 μM"}, {"measurement": "mouse toxicity IP 200 mg/kg", "setting": "[1]; mouse, in vivo, ip, 200 mg/kg", "result": "severe"}]}, {"compound": "O=C(CN1CCN(Cc2ccccc2)CC1)N/N=C/c1ccccc1", "note": "[PAC-1a]", "values": [{"measurement": "Zn^2+ Kd", "setting": "[4]", "result": "does not bind zinc"}]}, {"compound": "C=CCc1cccc(/C=N/NC(=O)CN2CCN(Cc3ccc(S(N)(=O)=O)cc3)CC2)c1O", "note": "[S-PAC-1]", "values": [{"measurement": "time post-treatment up to which compound is detectable in serum", "setting": "[5]", "result": 6, "unit": "h"}]}]}
